Counter-ions that a name gives are not always drawn.
How the values were obtained:
[1] = biological target: T1, membrane-bound GnRH receptor (Rattus norvegicus, UniProt P30969); test: GnRH Receptor Binding Assay ([125I]-histrelin competition, rat pituitary homogenate); conditions: [125I]-histrelin displacement, female and male rat pituitary homogenate; values without parentheses = IC50; read-out: Binding, IC50 (B % @ 30 μM)
T1 construct: from tissue; host or cells: rat pituitary homogenate (female and male, equal mixture)
T1 sequence (P30969 1-327): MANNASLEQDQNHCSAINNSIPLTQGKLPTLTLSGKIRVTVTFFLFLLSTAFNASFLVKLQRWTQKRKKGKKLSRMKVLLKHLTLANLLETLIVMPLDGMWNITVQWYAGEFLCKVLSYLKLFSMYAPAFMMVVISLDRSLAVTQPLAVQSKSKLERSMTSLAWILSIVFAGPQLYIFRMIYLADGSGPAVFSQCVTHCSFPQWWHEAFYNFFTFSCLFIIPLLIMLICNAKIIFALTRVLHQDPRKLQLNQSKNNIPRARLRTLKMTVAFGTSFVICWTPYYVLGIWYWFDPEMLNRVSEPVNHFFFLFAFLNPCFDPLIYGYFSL
Text: GnRH Receptor Binding Assay
A homogenate prepared from an equal mixture of female and male rat pituitaries was used as the source of the membrane-bound GnRH receptor. The receptor was allowed to interact in solution with [^125I]-histrelin alone or in combination with a competitive ligand (the compound being tested). The bound radiolabeled ligand was separated from the free (unbound) radiolabeled ligand by filtration through glass filter mats using a 96-well plate harvesting system (Tomtec Mach II 96). In the absence of a competitive ligand, a maximum amount of radiolabeled ligand is bound to the receptor and trapped by the glass filter mats. […] The amount of receptor-bound [^125I]-histrelin on the filter mat was determined using a Wallac Betaplate™ Liquid Scintillation Counter. Binding was determined as follows:
B0 maximum concentration of compound
Average NSB: (NSB1+NSB2)/2
Corrected B0: Average B0−Average NSB
% inhibition of Corrected B0 (or maximum response) was calculated as follows:
% Inhibition=100−[((Actual counts per minute−Average NSB)/Corrected B0)*100]

[2] = tested on: rat anterior pituitary cells; test: Primary Pituitary Cell Culture Assay (luteinizing hormone in media after 1 nM GnRH); assay type: cell-based; conditions: inhibition of luteinizing hormone release, male rat primary pituitary cells
Experimental: Primary Pituitary Cell Culture Assay
Male rats (between immature and adult) were sacrificed and the anterior pituitaries were collected from them. The pituitaries were dissociated and the cells were plated at a concentration of 0.33×10^6 cells/well on day 1. On day 3 the media on the cells was flushed and replaced with fresh media. The test compound was then added to the plated cells at a concentration ranging from 1 nM to 1000 nM. The plates were incubated at 37° C. at 5% CO2 for 2 days. On Day 5 the media was flushed again and replaced with fresh media. To the plates were then added test compound and 1 nM GnRH. The cells were incubated for 4 hours, the media was collected by centrifuging the plates at 1200 rpm Sorvall RT7 for 10 minutes, 900 μL of supernatant was pipetted from each well and dispensed to a 96 well plate. The deep well plates were covered and stored at […] for a day. The plates are then evaluated by ELISA ([…]) to determine the concentration of lutenizing hormone in the media. The assay was repeated at varying concentrations of the test compounds to determine IC50 values. The IC50 value is defined as the concentration of test compound at which 50% inhibition was achieved.

[3] = biological target: T2, GnRHR (Hek 293 cells with the GnRHR gene) (Homo sapiens, UniProt P30968); test: LUCIFERASE Assay for GnRH (hCG promoter luciferase reporter); assay type: cell-based; conditions: antagonist format, against 0.6 nM Histrelin
T2 construct: expressed in transfected cells; host or cells: HEK 293 cells carrying the GnRHR gene, transfected with an hCG promoter-luciferase reporter
T2 sequence (P30968 1-328): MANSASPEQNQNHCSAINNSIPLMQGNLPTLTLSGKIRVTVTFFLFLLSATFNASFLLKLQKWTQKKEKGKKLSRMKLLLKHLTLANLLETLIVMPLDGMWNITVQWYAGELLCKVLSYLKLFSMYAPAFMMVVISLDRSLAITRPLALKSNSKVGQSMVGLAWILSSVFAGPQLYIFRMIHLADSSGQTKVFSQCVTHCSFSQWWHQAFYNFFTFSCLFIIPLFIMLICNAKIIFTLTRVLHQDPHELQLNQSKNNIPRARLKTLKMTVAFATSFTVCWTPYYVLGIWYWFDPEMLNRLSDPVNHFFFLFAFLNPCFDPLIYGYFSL
Experimental: LUCIFERASE Assay for GnRH
Hek 293 cells with the GnRHR gene were transfected with the hCG promoter and the luciferase reporter system. On day 1, the cells were plated at a density of 80,000 cells per well on a Poly-D-lysine pre-coated 96 well plate. The plates were incubated at 37° C. for 24 hours. On day 2, the spent media was decanted and replaced with fresh media. Test compounds, standard and controls were added to individual wells. All the dilutions were done in 7.5% DMSO/(αMEM media. The assay was run in both agonist and antagonist format. For the antagonist format, the assay measurements were run against a standard of 0.6 nM Histrelin. On day 3, the levels of luciferase production were measured in a chemiluminescence assay using Enhanced Luciferase Assay Kit. The results were expressed as % Inhibition using the following formula: […]
RLU Relative Light Units, a measure of chemiluminescence
Agonist [RLU value(test compound)−(Background/0.6 nM Histrelin)−Background]*100
Antagonist (1−[(RLU value−(Background/0.6 nM Histrelin)−Background)*100])
The calculated percentages were plotted on a graph using Graph Pad Prizm and the IC50/EC50 values determined.

Row | SMILES | IC50 [1] | IC50 [2] | IC50 [3]
1 | CN(Cc1ccccc1)Cc1cc2c3nnc(OCc4ccccc4)c-3cn(Cc3c(F)cccc3F)c2cc1-c1cc2ccccc2o1 [Compound 5, 7-(Benzofuran-2-yl)-3-[(phenylmethyl)oxy]-5-[(2,6-difluorophenyl)methyl]-8-[[methyl(phenylmethyl)amino]methyl]-5H-pyrazolo[4,3-c]quinoline] | 5 µM | – | –
2 | CCOC(=O)c1cn(Cc2c(F)cccc2F)c2cc(-c3cc4ccccc4o3)c(CN(C)Cc3ccccc3)cc2c1=O [Compound 2, 6-(N-Benzyl-N-methylaminomethyl)-7-(benzofuran-2-yl)-1-(2,6-difluorobenzyl)-1,4-dihydro-4-oxoquinoline-3-carboxylic Acid Ethylester] | – | 2.43 µM | 3.26 µM
3 | CCOC(=O)c1cn(Cc2c(F)cccc2F)c2cc(-c3ccsc3)c(CN(C)Cc3ccccc3)cc2c1=O [Compound 1, 6-(N-Benzyl-N-methylaminomethyl)-7-(thien-3-yl)-1-(2,6-difluorobenzyl)-1,4-dihydro-4-oxoquinoline-3-carboxylic Acid Ethyl Ester] | 32 µM | – | 10 µM
4 | CCOc1nnc2c3cc(CN(C)Cc4ccccc4)c(-c4cc5ccccc5o4)cc3n(Cc3c(F)cccc3F)cc1-2 [Compound 6, 7-(Benzofuran-2-yl)-3-ethoxy-5-[(2,6-difluorophenyl)methyl]-8-[[methyl(phenylmethyl)amino]methyl]-5H-pyrazolo[4,3-c]quinoline HCl] | 5 µM | – | –
5 | COc1ccc(-c2sc3c(c4n[nH]c(=O)c-4cn3Cc3ccccc3OC)c2CN(C)Cc2ccccc2)cc1 [Compound 8, 2,5-Dihydro-7-(4-methoxyphenyl)-5-[(2-methoxyphenyl)methyl]-8-[[methyl(phenylmethyl)amino]methyl]-3H-pyrazolo[3,4-d]thieno[2,3-b]pyridin-3-one] | 30 µM | – | –
6 | CN(Cc1ccccc1)Cc1cc2c3n[nH]c(=O)c-3cn(Cc3c(F)cccc3F)c2cc1Br [Compound 3, 2,5-Dihydro-7-bromo-8-[[methyl(phenylmethyl)amino]methyl]-5-[(2,6-difluorophenyl)methyl]-3H-pyrazolo[4,3-c]quinolin-3-one] | 16 µM | – | –

Other lines, results leading:

Row | IC50 [1] | IC50 [2] | IC50 [3] | SMILES
7 | 1.6 µM | 1.48 µM | – | COc1ccc(-c2sc3c(c2CN(C)Cc2ccccc2)c(=O)c(C(=O)NN)cn3Cc2ccccc2OC)cc1 [Compound 7, 4,7-Dihydro-2-(4-methoxyphenyl)-7-[(2-methoxyphenyl)methyl]-3-[[methyl(phenylmethyl)amino]methyl]-4-oxo-thieno[2,3-b]pyridine-5-carboxylic Acid, Hydrazide bis-Hydrochloride]
8 | 1 µM | – | – | CN(Cc1ccccc1)Cc1cc2c3n[nH]c(=O)c-3cn(Cc3c(F)cccc3F)c2cc1-c1cc2ccccc2o1 [Compound 4, 2,5-Dihydro-7-(benzofuran-2-yl)-8-[[methyl(phenylmethyl)amino]methyl]-5-[(2,6-difluorophenyl)methyl]-3H-pyrazolo[4,3-c]quinolin-3-one]

From patent US6765011B2, “7-heterocyclyl quinoline and thieno[2,3-b]pyridine derivatives useful as antagonists of gonadotropin releasing hormone” (Ortho-McNeil Pharmaceutical, Inc., priority 2000, dated 2004)
